# From patent US12234227B2, “Pyrazole derivatives as H4 antagonist compounds” (NXERA PHARMA UK LIMITED, priority 2018, dated 2025)
# Structures can show the parent of a compound that is named as a salt.
# How the values were obtained:
# [1] = molecular target: T1, human H4 receptor (Homo sapiens, UniProt Q9H3N8); assay: H4 Antagonist Functional cAMP Gi Assay; format: cell-based; settings: H4 antagonist activity; for Kb: read-out: Human H4 CAMP fpKb (converted)
# T1 construct: expressed in transfected cells; host or cells: HEKf cells transduced with baculovirus
# T1 sequence (Q9H3N8 whole entry): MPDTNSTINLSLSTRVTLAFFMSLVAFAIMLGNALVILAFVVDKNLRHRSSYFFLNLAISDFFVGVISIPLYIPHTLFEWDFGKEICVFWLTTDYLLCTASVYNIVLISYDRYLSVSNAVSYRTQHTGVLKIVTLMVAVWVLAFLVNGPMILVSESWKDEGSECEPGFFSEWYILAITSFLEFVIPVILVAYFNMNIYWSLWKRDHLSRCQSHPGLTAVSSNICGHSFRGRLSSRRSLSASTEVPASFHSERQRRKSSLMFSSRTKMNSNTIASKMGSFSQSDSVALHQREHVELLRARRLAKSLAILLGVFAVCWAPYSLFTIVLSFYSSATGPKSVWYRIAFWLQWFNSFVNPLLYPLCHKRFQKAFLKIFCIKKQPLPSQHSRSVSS
# Protocol: H4 Antagonist Functional cAMP Gi Assay
# HEKf cells were infected overnight using baculovirus expressing the human H4 receptor, then centrifuged at 1,200 rpm for 5 min, frozen in cell freezing medium (Sigma) and stored at −150° C. On the day of assay, the cells were thawed and resuspended in HBSS with 500 nM IBMX to achieve a density of 1,500 cells/well. H4 ligands were prepared in DMSO and stamped by LabCyte ECHO acoustic dispensing at 25 nL in low volume plates. 10 μL/well cells were plated in the presence of 1 μM forskolin, subjected to centrifugation at 1,200 rpm for 1 min and incubated for 30 min prior to addition of Cisbio cAMP detection reagents to a total volume 20 μL/well. For the antagonist assay, cells were pre-incubated with H4 antagonist ligands for 30 min prior to addition of EC80 concentration of histamine and a further 30 min incubation. Following detection reagent addition and shaking at room temperature for 60 min, cAMP accumulation was measured using HTRF on a PheraStar plate reader. EC50 values were generated using a 4-parameter logistical fit equation to quantify agonist potencies. Functional antagonist affinity values were generated using the Cheng-Prusoff equation to calculate a pKb value using the antagonist assay data.
# [2] = molecular target: hERG (Homo sapiens, UniProt Q12809); assay: hERG Assay (QPatch automated patch clamp; single-concentration assay at 30 μM and pIC50 assay); settings: for inhibition at 30 µM: human, CHO cells stably expressing hERG
# hERG, sequence (Q12809 whole entry): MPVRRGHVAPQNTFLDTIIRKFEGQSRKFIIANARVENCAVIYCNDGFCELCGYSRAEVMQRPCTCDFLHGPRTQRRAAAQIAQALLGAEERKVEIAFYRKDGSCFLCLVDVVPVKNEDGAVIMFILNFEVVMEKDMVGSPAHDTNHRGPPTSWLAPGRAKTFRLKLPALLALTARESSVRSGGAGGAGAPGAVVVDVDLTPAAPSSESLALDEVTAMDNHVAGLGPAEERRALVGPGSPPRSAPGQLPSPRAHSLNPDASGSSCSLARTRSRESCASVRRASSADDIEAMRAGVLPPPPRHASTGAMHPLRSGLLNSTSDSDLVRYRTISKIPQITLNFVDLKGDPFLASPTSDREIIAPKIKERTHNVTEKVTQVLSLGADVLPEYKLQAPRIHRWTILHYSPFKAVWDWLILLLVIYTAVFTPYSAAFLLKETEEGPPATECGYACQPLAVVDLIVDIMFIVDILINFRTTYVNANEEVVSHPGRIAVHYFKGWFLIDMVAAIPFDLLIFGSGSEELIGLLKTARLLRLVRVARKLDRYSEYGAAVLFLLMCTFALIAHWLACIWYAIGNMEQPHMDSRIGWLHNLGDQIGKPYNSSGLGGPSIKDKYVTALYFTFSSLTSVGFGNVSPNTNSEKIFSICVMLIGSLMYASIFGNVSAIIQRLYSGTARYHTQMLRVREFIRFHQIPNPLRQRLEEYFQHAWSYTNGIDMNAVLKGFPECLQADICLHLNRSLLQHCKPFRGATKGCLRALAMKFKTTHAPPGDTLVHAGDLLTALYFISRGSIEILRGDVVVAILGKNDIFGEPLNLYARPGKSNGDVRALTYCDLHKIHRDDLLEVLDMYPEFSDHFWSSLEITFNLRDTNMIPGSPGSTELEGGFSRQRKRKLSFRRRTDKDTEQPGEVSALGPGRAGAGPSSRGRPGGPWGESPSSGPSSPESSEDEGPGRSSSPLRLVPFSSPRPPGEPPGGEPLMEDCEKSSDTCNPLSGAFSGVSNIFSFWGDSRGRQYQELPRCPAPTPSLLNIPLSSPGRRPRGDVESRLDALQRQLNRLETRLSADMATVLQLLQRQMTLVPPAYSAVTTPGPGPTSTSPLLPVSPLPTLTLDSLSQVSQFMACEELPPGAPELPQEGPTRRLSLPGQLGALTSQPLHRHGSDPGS
SMILES,Kb [1],inhibition at 30 µM [2],other results
CN[C@@H]1CCN(c2cc(-c3[nH]nc4c3CCC4)nc(N)n2)C1 [7.4],6.31 nM,16%,
"CN[C@@H]1CCN(c2cc(-c3ccn[nH]3)nc(N)n2)C1 [Example 1-1, (R)-4-(3-(methylamino)pyrrolidin-1-yl)-6-(1H-pyrazol-5-yl)pyrimidin-2-amine]",50.1 nM,,IC50 [2]: ≥ 100000 nM
"CN[C@@H]1CCN(c2cc(-c3ccnn3C)nc(N)n2)C1 [Example 1-2, (R)-4-(1-methyl-1H-pyrazol-5-yl)-6-(3-(methylamino)pyrrolidin-1-yl)pyrimidin-2-amine dihydrochloride]",794 nM,,
"CN[C@@H]1CCN(c2cc(-c3ccn(C)n3)nc(N)n2)C1 [Example 2-1, (R)-4-(1-methyl-1H-pyrazol-3-yl)-6-(3-(methylamino)pyrrolidin-1-yl)pyrimidin-2-amine]",39.8 nM,,IC50 [2]: ≥ 100000 nM
"CN[C@@H]1CCN(c2cc(-c3ccn(C(F)F)n3)nc(N)n2)C1 [Example 2-2, (R)-4-(1-(difluoromethyl)-1H-pyrazol-3-yl)-6-(3-(methylamino)pyrrolidin-1-yl)pyrimidin-2-amine dihydrochloride]",50.1 nM,99%,
"CN[C@@H]1CCN(c2cc(-c3cc(C)n[nH]3)nc(N)n2)C1 [Example 3-1, (R)-4-(3-methyl-1H-pyrazol-5-yl)-6-(3-(methylamino)pyrrolidin-1-yl)pyrimidin-2-amine]",7.94 nM,< 1%,
"CN[C@@H]1CCN(c2cc(-c3cc(C4CC4)n[nH]3)nc(N)n2)C1 [Example 3-2, dihydrochloride]",100 nM,39%,
"CN[C@@H]1CCN(c2cc(-c3cc(C(F)F)n[nH]3)nc(N)n2)C1 [Example 3-3, (R)-4-(3-(difluoromethyl)-1H-pyrazol-5-yl)-6-(3-(methylamino)pyrrolidin-1-yl)pyrimidin-2-amine]",50.1 nM,,
"CN[C@@H]1CCN(c2cc(-c3cc(C(F)(F)F)n[nH]3)nc(N)n2)C1 [Example 3-4, (R)-4-(3-(methylamino)pyrrolidin-1-yl)-6-(3-(trifluoromethyl)-1H-pyrazol-5-yl)pyrimidin-2-amine ditrifluoroacetate salt]",63.1 nM,45%,
Nc1nc(-c2cc(C(F)(F)F)n[nH]2)cc(N2CC[C@@H](N)C2)n1 [Example 3-5],100 nM,19%,
"CCc1cn[nH]c1-c1cc(N2CC[C@@H](NC)C2)nc(N)n1 [Example 4-2, (R)-4-(4-ethyl-1H-pyrazol-5-yl)-6-(3-(methylamino)pyrrolidin-1-yl)pyrimidin-2-amine]",10 nM,25%,
"CN[C@@H]1CCN(c2cc(-c3[nH]ncc3OC)nc(N)n2)C1 [Example 4-4, (R)-4-(4-methoxy-1H-pyrazol-5-yl)-6-(3-(methylamino)pyrrolidin-1-yl)pyrimidin-2-amine]",79.4 nM,14%,
"CN[C@@H]1CCN(c2cc(-c3cc(C)n(C)n3)nc(N)n2)C1 [Example 5-1, diformate]",398 nM,,
CN[C@@H]1CCN(c2cc(-c3cc(C)n(C(F)F)n3)nc(N)n2)C1 [Example 5-2],398 nM,71%,
CN[C@@H]1CCN(c2cc(-c3nn(C)cc3C)nc(N)n2)C1 [Example 6-1],20 nM,12%,
CN[C@@H]1CCN(c2cc(-c3nn(C(F)F)cc3C)nc(N)n2)C1 [Example 6-2],39.8 nM,94%,
CN[C@@H]1CCN(c2cc(-c3[nH]nc(C)c3Cl)nc(N)n2)C1 [Example 7-2],0.251 nM,39%,
Cc1n[nH]c(-c2cc(N3CC[C@@H](N)C3)nc(N)n2)c1C [Example 7-6],398 nM,,
Cc1n[nH]c(-c2cc(N3CC[C@@H](N)C3)nc(N)n2)c1Cl [Example 7-7],2 nM,30%,
CCc1n[nH]c(-c2cc(N3CC[C@@H](N)C3)nc(N)n2)c1C [Example 7-8],126 nM,,
CN[C@@H]1CCN(c2cc(-c3cn[nH]c3)nc(N)n2)C1 [Example 8-1],100 nM,,IC50 [2]: ≥ 100000 nM
"CCn1cc(-c2cc(N3CC[C@@H](NC)C3)nc(N)n2)cn1 [Example 8-3, dihydrochloride]",39.8 nM,12%,
CN[C@@H]1CCN(c2cc(-c3cnn(C4CCC4)c3)nc(N)n2)C1 [Example 8-5],251 nM,77%,
CN[C@@H]1CCN(c2cc(-c3cnn(C(F)F)c3)nc(N)n2)C1 [Example 8-6],20 nM,,IC50 [2]: 6310 nM
"CN[C@@H]1CCN(c2cc(-c3cnn(CC(F)(F)F)c3)nc(N)n2)C1 [Example 8-8, dihydrochloride]",398 nM,44%,
CN[C@@H]1CCN(c2cc(-c3cnn(CCO)c3)nc(N)n2)C1 [Example 8-9],631 nM,,
CN[C@@H]1CCN(c2cc(-c3cnn(C4COC4)c3)nc(N)n2)C1 [Example 8-11],501 nM,,
CN[C@@H]1CCN(c2cc(-c3cnn(CCC#N)c3)nc(N)n2)C1 [Example 8-12],794 nM,,

SMILES,Kb [1],inhibition at 30 µM [2],other results
CN[C@@H]1CCN(c2cc(-c3cnn(CC#N)c3)nc(N)n2)C1 [Example 8-13],200 nM,,
CCOC(=O)N1CCCC(n2cc(-c3cc(N4CC[C@@H](NC)C4)nc(N)n3)cn2)C1 (stereo partly shown) [Example 8-14],794 nM,,
"Nc1nc(-c2cnn(C(F)(F)F)c2)cc(N2CC[C@@H](N)C2)n1 [Example 8-15, dihydrochloride]",2.51 nM,44%,IC50 [2]: ≥ 100000 nM
"CCn1cc(-c2cc(N3CC[C@@H](N)C3)nc(N)n2)cn1 [Example 8-17, dihydrochloride]",50.1 nM,10%,
"Nc1nc(-c2cnn(CC(F)(F)F)c2)cc(N2CC[C@@H](N)C2)n1 [Example 8-18, dihydrochloride]",501 nM,,
CCc1[nH]ncc1-c1cc(N2CC[C@@H](NC)C2)nc(N)n1 [Example 9-2],12.6 nM,12%,
CN[C@@H]1CCN(c2cc(-c3cn[nH]c3C3CC3)nc(N)n2)C1.O=C(O)C(F)(F)F.O=C(O)C(F)(F)F [Example 9-4],,,"Human H4 CAMP fpKb [1]: 7.6; hERG % inhibition at 30 μM ([2]; single concentration 30 μM, QPatch): 17%"
CN[C@@H]1CCN(c2cc(-c3cn[nH]c3C(F)F)nc(N)n2)C1 [Example 9-5],39.8 nM,,
"CN[C@@H]1CCN(c2cc(-c3cn(C)nc3C3CC3)nc(N)n2)C1 [Example 11-3, dihydrochloride]",501 nM,34%,
"CN[C@@H]1CCN(c2cc(-c3cn(C)nc3C(F)(F)F)nc(N)n2)C1 [Example 11-4, dihydrochloride]",316 nM,46%,
CN[C@@H]1CCN(c2cc(-c3cn(C)nc3C#N)nc(N)n2)C1 [Example 11-5],794 nM,,
CN[C@@H]1CCN(c2cc(-c3cnn(C)c3C#N)nc(N)n2)C1 [Example 12-2],251 nM,14%,
"CN[C@@H]1CCN(c2cc(-c3cnn4c3CCC4)nc(N)n2)C1 [Example 12-4, dihydrochloride]",158 nM,1%,
CCc1cc(-c2cc(N3CC[C@@H](NC)C3)nc(N)n2)[nH]n1 [Example 15-1],3.16 nM,68%,
"CN[C@H]1CCN(c2cc(-c3[nH]ncc3C)nc(N)n2)C1 [Example 16-1, ditrifluoroacetate]",31.6 nM,32%,
"CNC1(C)CCN(c2cc(-c3[nH]ncc3C)nc(N)n2)C1 (stereo not shown) [Example 16-2, ditrifluoroacetate]",50.1 nM,9%,
"CNC1CN(c2cc(-c3[nH]ncc3C)nc(N)n2)C1 [Example 16-3, ditrifluoroacetate]",7.94 nM,,
"Cc1cn[nH]c1-c1cc(N2CC(N)C2)nc(N)n1 [Example 16-4, ditrifluoroacetate]",398 nM,,
"CNC1(C)CN(c2cc(-c3[nH]ncc3C)nc(N)n2)C1 [Example 16-5, ditrifluoroacetate]",20 nM,,
Cc1cn[nH]c1-c1cc(N2CC3CCNC3C2)nc(N)n1 (stereo not shown) [Example 16-6],631 nM,,
"CN[C@@H]1CCN(c2cc(-c3[nH]ncc3F)nc(N)n2)C1 [Example 16-10, ditrifluoroacetate]",12.6 nM,21%,
Nc1nc(-c2[nH]ncc2Cl)cc(N2CC[C@@H](N)C2)n1 [Example 16-11],7.94 nM,27%,
CN[C@@H]1CCN(c2cc(-c3[nH]nc(C)c3C(F)(F)F)nc(N)n2)C1 [Example 17-2],5.01 nM,39%,
"CN[C@@H]1CCN(c2cc(-c3[nH]nc(C(F)F)c3C)nc(N)n2)C1 [Example 17-10, ditrifluoroacetate]",0.251 nM,57%,
CN[C@@H]1CCN(c2cc(-c3[nH]nc(C(F)(F)F)c3C)nc(N)n2)C1 [Example 17-12],1.58 nM,60%,
"CN[C@@H]1CCN(c2cc(-c3[nH]nc(Cl)c3C)nc(N)n2)C1 [Example 17-14, dihydrochloride]",0.0631 nM,44%,
CN[C@@H]1CCN(c2cc(-c3[nH]nc(Cl)c3Cl)nc(N)n2)C1 [Example 17-15],0.0501 nM,75%,
